Legend:
[1] = Microsomal stability assay; format: in vitro ADME; conditions: human, human liver microsomes, pH 7.4, human liver microsomes, 37° C.; for half-life at 50 μM: read-out: T1/2, 50 μm microsomal stability assay
Description: 50 μL test sample (50 mM), 25 μL human liver microsomes (20 mg/ml, BD Gentest, catalog no. 452161), 281 μL potassium phosphate buffer (100 mM, pH 7.4), 5 μL NaDPH regenerating system, solution B (BD Biosciences, catalog no. 451200), and 114 μL of water were pre-incubated for 5 min at 37° C. The reaction was initiated by the addition of 25 μL NaDPH regenerating system, solution A (BD Biosciences, catalog no. 451220). After an incubation period of 0, 15, 30, and 60 min at 37° C., 100 μL of the reaction mixture was transferred to an eppendorf tube, followed by addition of 100 μL chilled acetonitrile to quench the reaction. The sample was then centrifuged at 14,000 rpm for 5 min. The supernatant was submitted for LCMS analysis.

[2] = test system: A549 human alveolar epithelial cell; assay: Growth inhibition (cytotoxicity), A549 assay, Cell Titer Glo; format: cell-based; conditions: A549, 72 h, A549 cells, 72 hour incubation
Description: (§1) The cytotoxicity of each of the MC compounds as described herein was evaluated in the following cell types: A549 human alveolar epithelial cell, PC3 human prostate carcinoma cell, COLO205 human colon adenocarcinoma cell, HEPG2 human hepatoma, OVCAR3 human ovary adenocarcinoma cell, and HL60 human acute myelocytic leukemia (AML) cell.
(§2) A549, PC3, COLO205 and HEPG2 cells were cultured in DMEM (Invitrogen Corporation) with 10% fetal bovine serum, whereas OVCAR3 and HL60 were cultured in the same medium but with 20% fetal bovine serum. For cytotoxocoty measurements the cells were seeded in 96 or 384 well tissue culture treated microtitre plates overnight. Compounds were diluted in appropriate buffers and added to the cells the next day. Following a further 72 hour incubation, cell viability was determined using Cell Titer Glo (Promega Corporation) according to the manufacturers' instructions, and the luminescence measured in Luminoskan Ascent (Thermo Fisher Scientific Inc.).

[3] = test system: PC3 human prostate carcinoma cell; assay: Growth inhibition (cytotoxicity), PC3A assay, Cell Titer Glo; format: cell-based; conditions: PC-3, 72 h, PC3 cells, 72 hour incubation
Description: as §1, §2

[4] = test system: OVCAR3 human ovary adenocarcinoma cell; assay: Growth inhibition (cytotoxicity), OVCAR3 assay, Cell Titer Glo; format: cell-based; conditions: Homo sapiens, OVCAR-3, 72 h, OVCAR3 cells, 72 hour incubation
Description: as §1, §2

[5] = Stability determination at PBS pH7.2; format: physicochemical; conditions: PBS pH 7.2, pH 7.2, PBS pH7.2, 37° C.; read-out: T1/2, PBS buffer stability assay
Description: Around 0.1 mg of the dried sample was placed in a 2-mL vial, added with 1 mL of PBS pH7.2 and then mixed using a Vortex mixer. The mixture was filtered through a 4 mm Nylon filter with 0.2 μm pore size and the filtrate collected in an hplc vial. The vial was placed in an hplc autosampler maintained at 37° C. just before injection (time=0 h). The stability of the sample was calculated by determining the amount left in solution at specific time intervals. This study was carried out in three trials with the buffer solution as a blank.

Row | Compound | half-life at 50 μM [1] | IC50 [2] | other results
1 | CC[C@H](OC)[C@@H](C)[C@H]1O[C@@H]1C(NCCCN1CCOCC1)C(C)(O)/C=C/C=C(\C)C1OC(=O)C[C@H](O)CC[C@@](C)(O)[C@@H](OC(C)=O)/C=C/[C@@H]1C.O=CO (single isomer, unassigned) [MC-009b] | > 30 min | – | –
2 | CC[C@H](OC)[C@@H](C)[C@H]1O[C@@H]1C1C(Cc2ccccc2)C(=O)OC1(C)/C=C/C=C(\C)C1OC(=O)C[C@H](O)CC[C@@](C)(O)[C@@H](OC(C)=O)/C=C/[C@@H]1C (single isomer, unassigned) [MC-012a] | – | ≤ 1000 nM | –
3 | CC[C@H](OC)[C@@H](C)[C@H]1O[C@@H]1C(NCc1ccc(Br)cc1)C(C)(O)/C=C/C=C(\C)C1OC(=O)C[C@H](O)CC[C@@](C)(O)[C@@H](OC(C)=O)/C=C/[C@@H]1C.O=CO (single isomer, unassigned) [MC-014b] | > 30 min | – | –
4 | CC[C@H](OC)[C@@H](C)[C@H]1O[C@@H]1C(NCCc1ccc(Cl)cc1Cl)C(C)(O)/C=C/C=C(\C)C1OC(=O)C[C@H](O)CC[C@@](C)(O)[C@@H](OC(C)=O)/C=C/[C@@H]1C (single isomer, unassigned) [MC-017b] | – | ≤ 1000 nM | –
5 | CC[C@H](OC)[C@@H](C)[C@H]1O[C@@H]1C(NCc1c(Cl)cccc1Cl)C(C)(O)/C=C/C=C(\C)C1OC(=O)C[C@H](O)CC[C@@](C)(O)[C@@H](OC(C)=O)/C=C/[C@@H]1C (single isomer, unassigned) [MC-018a] | – | ≤ 1000 nM | –
6 | CC[C@H](OC)[C@@H](C)[C@H]1O[C@@H]1C(NCc1cccc(Cl)c1)C(C)(O)/C=C/C=C(\C)C1OC(=O)C[C@H](O)CC[C@@](C)(O)[C@@H](OC(C)=O)/C=C/[C@@H]1C (single isomer, unassigned) [MC-027a] | – | ≤ 1000 nM | –
7 | CC[C@H](OC)[C@@H](C)[C@H]1O[C@@H]1C(NCc1ccc2c(c1)OCO2)C(C)(O)/C=C/C=C(\C)C1OC(=O)C[C@H](O)CC[C@@](C)(O)[C@@H](OC(C)=O)/C=C/[C@@H]1C.O=CO (single isomer, unassigned) [MC-030a] | > 30 min | – | IC50 [3]: ≤ 100 nM; IC50 [4]: ≤ 100 nM
8 | CC[C@H](OC)[C@@H](C)[C@H]1O[C@@H]1C(NCc1ccc(N2CCCNCC2)cc1)C(C)(O)/C=C/C=C(\C)C1OC(=O)C[C@H](O)CC[C@@](C)(O)[C@@H](OC(C)=O)/C=C/[C@@H]1C (single isomer, unassigned) [MC-041a] | – | ≤ 1000 nM | –
9 | CC[C@H](OC)[C@@H](C)[C@H]1O[C@@H]1C(NCc1ccc2[nH]ccc2c1)C(C)(O)/C=C/C=C(\C)C1OC(=O)C[C@H](O)CC[C@@](C)(O)[C@@H](OC(C)=O)/C=C/[C@@H]1C.O=CO (single isomer, unassigned) [MC-043a] | > 30 min | – | –
10 | CC[C@H](OC)[C@@H](C)[C@H]1O[C@@H]1C(NCc1ccc(NC2CC2)cc1)C(C)(O)/C=C/C=C(\C)C1OC(=O)C[C@H](O)CC[C@@](C)(O)[C@@H](OC(C)=O)/C=C/[C@@H]1C (single isomer, unassigned) [MC-044a] | – | ≤ 1000 nM | –
11 | CC[C@H](OC)[C@@H](C)[C@H]1O[C@@H]1C(NCc1ccc(Cl)nc1)C(C)(O)/C=C/C=C(\C)C1OC(=O)C[C@H](O)CC[C@@](C)(O)[C@@H](OC(C)=O)/C=C/[C@@H]1C.O=CO (single isomer, unassigned) [MC-046a] | > 30 min | – | –
12 | CC[C@H](OC)[C@@H](C)[C@H]1O[C@@H]1C(NCc1ccc(C)c(F)c1)C(C)(O)/C=C/C=C(\C)[C@H]1OC(=O)C[C@H](O)CC[C@@](C)(O)[C@@H](OC(C)=O)/C=C/[C@@H]1C.O=CO (stereo in doubt) [MC-031] | > 30 min | – | half-life at 0.1 mg/mL [5]: > 30 min; IC50 [3]: ≤ 100 nM; IC50 [4]: ≤ 100 nM
13 | CC[C@H](OC)[C@@H](C)C1O[C@@H]1C(NCc1ccc(Cl)nc1)C(C)(O)/C=C/C=C(\C)[C@H]1OC(=O)C[C@H](O)CC[C@@](C)(O)[C@@H](OC(C)=O)/C=C/[C@@H]1C (stereo in doubt) [MC-046] | – | – | half-life at 0.1 mg/mL [5]: > 30 min
14 | CC[C@H](OC)[C@@H](C)C1O[C@@H]1C(N(C)Cc1ccc(Cl)cc1)C(C)(O)/C=C/C=C(\C)[C@H]1OC(=O)C[C@H](O)CC[C@@](C)(O)[C@@H](OC(C)=O)/C=C/[C@@H]1C (stereo in doubt) [MC-047] | – | – | half-life at 0.1 mg/mL [5]: > 30 min
15 | CC[C@H](OC)[C@@H](C)[C@H]1O[C@@H]1C(N(CCO)Cc1ccc2ccccc2c1)C(C)(O)/C=C/C=C(\C)[C@H]1OC(=O)C[C@H](O)CCC(C)(O)[C@@H](OC(C)=O)/C=C/[C@@H]1C (stereo in doubt) [MC-051] | – | ≤ 1000 nM | –
16 | CC[C@H](OC)[C@@H](C)[C@H]1O[C@@H]1C(N(CCO)Cc1ccc(C(F)(F)F)cc1)C(C)(O)/C=C/C=C(\C)[C@H]1OC(=O)C[C@H](O)CCC(C)(O)[C@@H](OC(C)=O)/C=C/[C@@H]1C (stereo in doubt) [MC-053] | – | ≤ 1000 nM | –
17 | CC[C@H](OC)[C@@H](C)[C@H]1O[C@@H]1C(NCc1ccccc1)C(C)(/C=C/C=C(\C)[C@H]1OC(=O)C[C@H](O)CCC(C)(O)[C@@H](OC(C)=O)/C=C/[C@@H]1C)NCc1ccccc1 (some centres unmarked) [MC-001] | – | ≤ 1000 nM | –
18 | CC[C@H](OC)[C@@H](C)[C@H]1O[C@@H]1C(NCc1ccc(F)c(F)c1)C(C)(O)/C=C/C=C(\C)[C@H]1OC(=O)C[C@H](O)CC[C@@](C)(O)[C@@H](OC(C)=O)/C=C/[C@@H]1C.O=CO (some centres unmarked) [MC-029] | > 30 min | – | IC50 [3]: ≤ 100 nM; IC50 [4]: ≤ 100 nM
19 | CC[C@H](OC)[C@@H](C)[C@H]1O[C@@H]1C(NCc1ccc2c(c1)OCO2)C(C)(O)/C=C/C=C(\C)C1OC(=O)C[C@H](O)CC[C@@](C)(O)[C@@H](OC(C)=O)/C=C/[C@@H]1C (some centres unmarked) [MC-030] | – | – | half-life at 0.1 mg/mL [5]: > 30 min
20 | CC[C@H](OC)[C@@H](C)[C@H]1O[C@@H]1C(NCc1ccc(Cl)cc1F)C(C)(O)/C=C/C=C(\C)[C@H]1OC(=O)C[C@H](O)CC[C@@](C)(O)[C@@H](OC(C)=O)/C=C/[C@@H]1C.O=CO (some centres unmarked) [MC-032] | > 30 min | – | IC50 [3]: ≤ 100 nM; IC50 [4]: ≤ 100 nM
21 | CC[C@H](OC)[C@@H](C)[C@H]1O[C@@H]1C(NCC1CCCCCC1)C(C)(O)/C=C/C=C(\C)[C@H]1OC(=O)C[C@H](O)CC[C@@](C)(O)[C@@H](OC(C)=O)/C=C/[C@@H]1C.O=CO (some centres unmarked) [MC-034] | – | ≤ 1000 nM | half-life at 5 μM ([1]; 5 μm, read-out: T1/2, 5 μm microsomal stability assay): 6.1 min
22 | CC[C@H](OC)[C@@H](C)[C@H]1O[C@@H]1C(NCc1ccc(N2CCOCC2)cc1)C(C)(O)/C=C/C=C(\C)C1OC(=O)C[C@H](O)CC[C@@](C)(O)[C@@H](OC(C)=O)/C=C/[C@@H]1C (some centres unmarked) [MC-037] | – | – | half-life at 0.1 mg/mL [5]: > 30 min
23 | CC[C@H](OC)[C@@H](C)[C@H]1O[C@@H]1C(NCc1ccc(N2CCOCC2)cc1)C(C)(O)/C=C/C=C(\C)C1OC(=O)C[C@H](O)CC[C@@](C)(O)[C@@H](OC(C)=O)/C=C/[C@@H]1C (some centres unmarked) [MC-037d] | > 30 min | – | –
24 | CC[C@H](OC)[C@@H](C)[C@H]1O[C@@H]1C(NCc1ccc(N2CC(C)OC(C)C2)cc1)C(C)(O)/C=C/C=C(\C)C1OC(=O)C[C@H](O)CC[C@@](C)(O)[C@@H](OC(C)=O)/C=C/[C@@H]1C (some centres unmarked) [MC-042c] | – | ≤ 1000 nM | –
25 | CC[C@H](OC)[C@@H](C)[C@H]1O[C@@H]1C(NCc1ccc2[nH]ccc2c1)C(C)(O)/C=C/C=C(\C)C1OC(=O)C[C@H](O)CC[C@@](C)(O)[C@@H](OC(C)=O)/C=C/[C@@H]1C (some centres unmarked) [MC-043] | – | – | half-life at 0.1 mg/mL [5]: > 30 min
26 | CC[C@H](OC)[C@@H](C)[C@H]1O[C@@H]1C(NCc1ccc2[nH]ccc2c1)C(C)(O)/C=C/C=C(\C)C1OC(=O)C[C@H](O)CC[C@@](C)(O)[C@@H](OC(C)=O)/C=C/[C@@H]1C (some centres unmarked) [MC-043c] | – | ≤ 1000 nM | –
27 | CC[C@H](OC)[C@@H](C)[C@H]1O[C@@H]1C(N(CCCO)Cc1ccc(Cl)cc1)C(C)(O)/C=C/C=C(\C)[C@H]1OC(=O)C[C@H](O)CC[C@@](C)(O)[C@@H](OC(C)=O)/C=C/[C@@H]1C (some centres unmarked) [MC-045] | – | ≤ 1000 nM | –
28 | CC[C@H](OC)[C@@H](C)[C@H]1O[C@@H]1C(NS(=O)(=O)c1ccc(F)c(F)c1)C(C)(O)/C=C/C=C(\C)C1OC(=O)C[C@H](O)CCC(C)(O)[C@@H](OC(C)=O)/C=C/[C@@H]1C (some centres unmarked) [MC-58b] | – | ≤ 1000 nM | –

Source: patent US20110237566A1, “Therapeutic Macrolide Compounds and Their Use” (MERLION PHARMACEUTICALS PTE LTD, priority 2008, published 2011)
